This is an account of results in ChEMBL document CHEMBL1201862, “PubChem BioAssay data set” (2004).

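Assay format: 96-well plates, 48-hour exposure. GI50 = concentration required for 50% inhibition of growth.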 Calls of active or inactive are those of the source. Rule as the data show it: active = GI50 up to about 1.1 µM and inactive = higher. Where only a bound is given, the exact number is not on record here.

Among the test systems are NCI-H226; DU-145; SK-MEL-5; SNB-19; HCT-116; T47D; MDA-MB-435; COLO 205; HCT-15; UACC-257; SNB-75; NCI-H522; HL-60; OVCAR-8; CCRF-CEM; RPMI-8226; SK-MEL-28; MOLT-4; IGROV-1; SR.
Holding throughout (assay): growth of human tumour cells (NCI), 48 h

Consider `C=C(NC(=O)C(=C)NC(=O)c1csc(C2=NC3c4csc(n4)C4NC(=O)c5csc(n5)C(C(C)(O)C(C)O)NC(=O)C5CSC(=N5)/C(=C/C)NC(=O)C(C(C)O)NC(=O)c5csc(n5)C3(CC2)NC(=O)C(C)NC(=O)C(=C)NC(=O)C(=C)NC(=O)C(C(C)C)NC2C=Cc3c(C(C)O)cc(nc3C2O)C(=O)OC4C)n1)C(N)=O` (stereo unspecified), for which the GI50 is 1.19 µM (inactive) with NCI-H226; 20.9 µM (inactive) in the assay with DU-145; 1.29 µM (inactive) with SK-MEL-5; 33 µM (inactive) in the assay on SNB-19; 0.312 µM (active) in the assay on HCT-116; 2.4 µM (inactive) with T47D. Moreover, the GI50 in the assay with MDA-MB-435 is 0.743 µM (active); in the assay with COLO 205, 0.468 µM (active); with HCT-15 it was 9.25 µM; in the assay on UACC-257, 2.91 µM (inactive); in the assay on SNB-75, > 30.2 µM (inactive); with NCI-H522 it was 0.158 µM (active). The GI50 is 2.24 µM (inactive) with HL-60; 0.935 µM (active) in the assay on OVCAR-8; 0.25 µM (active) in the assay with CCRF-CEM; 1.29 µM (inactive) in the assay with RPMI-8226; 1.38 µM (inactive) in the assay with SK-MEL-28; 0.364 µM (active) in the assay with MOLT-4. Further, the GI50 in the assay on IGROV-1 is 7.28 µM (inactive).
Take `CC(=O)NC1C(OCc2ccccc2)OC(CO)C(O)C1OCC(=O)NC(C)C(=O)NC(CCC(=O)NCCCCCNc1c2ccccc2nc2cccc([N+](=O)[O-])c12)C(N)=O` (stereo unspecified): the GI50 was 0.000202 µM (active) in the assay on NCI-H226; < 0.0001 µM (active) in the assay with DU-145; < 0.0001 µM (active) in the assay with SK-MEL-5; < 0.0001 µM (active) in the assay with SNB-19; < 0.0001 µM (active) with HCT-116; < 0.0001 µM (active) in the assay with MDA-MB-435. Also, the GI50 is < 0.0001 µM (active) in the assay on COLO 205; less than 0.0001 µM with HCT-15; < 0.0001 µM (active) in the assay with UACC-257; 0.00217 µM (active) in the assay on SR; < 0.0001 µM (active) in the assay with SNB-75; < 0.0001 µM (active) in the assay with NCI-H522. Further, the GI50 is < 0.0001 µM (active) with HL-60; < 0.0001 µM (active) with OVCAR-8; 0.000861 µM (active) with CCRF-CEM; < 0.0001 µM (active) in the assay on RPMI-8226; < 0.0001 µM (active) in the assay with SK-MEL-28; < 0.0001 µM (active) in the assay on MOLT-4. Besides, in the assay on IGROV-1, the GI50 is 0.00102 µM (active).
Regarding `CN(C)CCN1C(=O)c2ccccc2C1(O)c1ccc(Cl)cc1` (stereo unspecified), the GI50 with NCI-H226 is 66.7 µM (inactive); with DU-145 it was > 100 µM (inactive); with SK-MEL-5 it was 24 µM (inactive); in the assay with SNB-19 it was > 100 µM (inactive); with HCT-116, 63.5 µM (inactive); in the assay with T47D, 94.8 µM (inactive). In addition, the GI50 in the assay with MDA-MB-435 is > 100 µM (inactive); with COLO 205 it was > 100 µM (inactive); in the assay with HCT-15, greater than 100 µM; with UACC-257, 24.8 µM (inactive); with SNB-75, 83.4 µM (inactive); in the assay on HL-60 it was 26.4 µM (inactive). The GI50 is > 100 µM (inactive) with OVCAR-8; 32.4 µM (inactive) in the assay on CCRF-CEM; > 100 µM (inactive) with RPMI-8226; 37.8 µM (inactive) with SK-MEL-28; 39.3 µM (inactive) in the assay with MOLT-4; 39.3 µM (inactive) in the assay with IGROV-1.
For the compound `CCOC(=O)NNC(=O)NCCCCNC(=O)NNC(=O)OCC`, the GI50 in the assay on NCI-H226, in the assay with DU-145, with SK-MEL-5, in the assay on SNB-19, with HCT-116 and in the assay with T47D was > 100 µM (inactive) in each case. For the same compound, the GI50 with MDA-MB-435 is > 100 µM (inactive); in the assay with COLO 205, > 100 µM (inactive); in the assay on HCT-15, greater than 100 µM; with UACC-257, > 100 µM (inactive); with SNB-75 it was 0.458 µM (active); in the assay with NCI-H522, > 100 µM (inactive). For the same compound, the GI50 in the assay with HL-60, in the assay on OVCAR-8, in the assay on CCRF-CEM, in the assay on RPMI-8226, in the assay with SK-MEL-28 and in the assay on MOLT-4 was > 100 µM (inactive) in each case. Further, the GI50 with IGROV-1 was > 100 µM (inactive).
Consider `Cn1c(=O)c2c(no[n+]2[O-])n(C)c1=O`, for which the GI50 with NCI-H226 was 18.2 µM (inactive); in the assay on SK-MEL-5 it was 42.6 µM (inactive); in the assay on SNB-19, 22.3 µM (inactive); with HCT-116, > 100 µM (inactive); with T47D it was > 100 µM (inactive); with MDA-MB-435, 20 µM (inactive). The GI50 was 23 µM (inactive) with COLO 205; greater than 100 µM with HCT-15; 36.9 µM (inactive) with UACC-257; > 100 µM (inactive) with SR; 49.7 µM (inactive) in the assay on SNB-75; 16.1 µM (inactive) in the assay on NCI-H522. The GI50 with OVCAR-8 is 19.1 µM (inactive); with CCRF-CEM, > 100 µM (inactive); in the assay with RPMI-8226, > 100 µM (inactive); in the assay with MOLT-4 it was > 100 µM (inactive); in the assay on IGROV-1 it was 22.2 µM (inactive).
`COc1cccc(-n2nnc3c(N)nc(N)nc32)c1`: the GI50 in the assay on NCI-H226 is > 100 µM (inactive); in the assay with DU-145, > 100 µM (inactive); with SK-MEL-5, > 100 µM (inactive); in the assay on SNB-19, 48.8 µM (inactive); in the assay on HCT-116, > 100 µM (inactive); in the assay on T47D it was > 100 µM (inactive). In addition, the GI50 in the assay with MDA-MB-435 was > 100 µM (inactive); in the assay with COLO 205, > 100 µM (inactive); in the assay with HCT-15 it was greater than 100 µM; in the assay on UACC-257 it was > 100 µM (inactive); with SNB-75 it was 15.7 µM (inactive); in the assay on NCI-H522, > 100 µM (inactive). For the same compound, the GI50 in the assay on HL-60, with OVCAR-8, in the assay with CCRF-CEM, with RPMI-8226, in the assay with SK-MEL-28 and in the assay with MOLT-4 was > 100 µM (inactive) in each case. The GI50 with IGROV-1 was 51.6 µM (inactive).
In the case of `CCCCn1c(-c2ccc([N+](=O)[O-])cc2)cs/c1=N/N=C1\C(=O)Nc2ccc(Br)cc21`, the GI50 with NCI-H226 is 21.1 µM (inactive); with DU-145, 13.8 µM (inactive); with SK-MEL-5, 14.1 µM (inactive); in the assay on SNB-19, 21.8 µM (inactive); in the assay on HCT-116, 12.9 µM (inactive); in the assay with T47D it was 7.11 µM (inactive). For the same compound, the GI50 in the assay with MDA-MB-435 is 14.1 µM (inactive); with COLO 205, 13.6 µM (inactive); in the assay with HCT-15, 21.9 µM; with UACC-257, 18.2 µM (inactive); in the assay on SNB-75, 20.3 µM (inactive); with NCI-H522 it was 14.2 µM (inactive). For the same compound, the GI50 in the assay on HL-60 was 16.9 µM (inactive); with OVCAR-8, 30 µM (inactive); with CCRF-CEM, 17.8 µM (inactive); with SK-MEL-28, 29.4 µM (inactive); in the assay with MOLT-4, 7.43 µM (inactive); in the assay on IGROV-1, 19.1 µM (inactive).
With `ClC1=NN=C(c2c[nH]c3ccccc23)CC1NCc1ccccc1` (stereo unspecified), the GI50 with NCI-H226, in the assay with DU-145, in the assay on SK-MEL-5, with SNB-19, in the assay with HCT-116 and in the assay with T47D was > 100 µM (inactive) in each case. The GI50 was > 100 µM (inactive) in the assay on MDA-MB-435; > 100 µM (inactive) in the assay with COLO 205; greater than 100 µM in the assay on HCT-15; > 100 µM (inactive) with UACC-257; > 100 µM (inactive) in the assay on SNB-75; > 100 µM (inactive) with NCI-H522. The GI50 in the assay on HL-60, in the assay on OVCAR-8, in the assay on CCRF-CEM, in the assay on RPMI-8226, in the assay with SK-MEL-28 and in the assay on MOLT-4 was > 100 µM (inactive) each time. Further, in the assay on IGROV-1, the GI50 is 97.7 µM (inactive).
Consider `CCN(CC)c1ccc(C2SCC(=O)N2c2ccc(NC(=O)c3ccc(N4C(=O)CSC4c4ccc(N(CC)CC)cc4)cc3)cc2)cc1` (stereo unspecified), for which the GI50 with DU-145 was > 100 µM (inactive); with SK-MEL-5, > 100 µM (inactive); with SNB-19, > 100 µM (inactive); with HCT-116 it was > 100 µM (inactive); in the assay with T47D, 26.2 µM (inactive); in the assay on MDA-MB-435, > 100 µM (inactive). Further, the GI50 is > 100 µM (inactive) in the assay with COLO 205; greater than 100 µM in the assay on HCT-15; > 100 µM (inactive) in the assay on UACC-257; > 100 µM (inactive) in the assay on SNB-75; > 100 µM (inactive) in the assay on NCI-H522; > 100 µM (inactive) in the assay on OVCAR-8. In addition, the GI50 in the assay with CCRF-CEM was 35.5 µM (inactive); in the assay on SK-MEL-28 it was > 100 µM (inactive); in the assay with MOLT-4, 29.7 µM (inactive); in the assay with IGROV-1 it was > 100 µM (inactive).
Regarding `OC(c1nc2ccccc2s1)(C(F)(F)F)C(F)(F)F`, the GI50 in the assay on NCI-H226, in the assay with DU-145, in the assay on SK-MEL-5, in the assay on SNB-19, in the assay with HCT-116 and in the assay with T47D was > 100 µM (inactive) throughout. In addition, the GI50 with MDA-MB-435 was > 100 µM (inactive); with COLO 205, > 100 µM (inactive); in the assay on HCT-15, greater than 100 µM; in the assay with UACC-257, > 100 µM (inactive); in the assay on SNB-75, > 100 µM (inactive); in the assay with NCI-H522 it was > 100 µM (inactive). Moreover, the GI50 in the assay with HL-60, in the assay with OVCAR-8, in the assay with CCRF-CEM, in the assay with RPMI-8226, in the assay on SK-MEL-28 and in the assay with MOLT-4 was > 100 µM (inactive) each time. Also, the GI50 in the assay on IGROV-1 was > 100 µM (inactive).
As to `O=C1/C(=C/c2cccc([N+](=O)[O-])c2)CCCc2ccccc21`, the GI50 with NCI-H226 is 16.2 µM (inactive); in the assay with DU-145, 15 µM (inactive); with SNB-19, 15.2 µM (inactive); in the assay on HCT-116, 5.4 µM (inactive); in the assay on MDA-MB-435, 9.66 µM (inactive); with COLO 205 it was 18.8 µM (inactive). For the same compound, the GI50 is 10.6 µM in the assay with HCT-15; 16.6 µM (inactive) in the assay with UACC-257; 2.86 µM (inactive) in the assay on SR; 15.1 µM (inactive) in the assay on SNB-75; 4.74 µM (inactive) with NCI-H522; 4.94 µM (inactive) in the assay with HL-60. For the same compound, the GI50 with OVCAR-8 was 12.7 µM (inactive); in the assay on CCRF-CEM, 2.93 µM (inactive); in the assay with RPMI-8226 it was 11.4 µM (inactive); with SK-MEL-28 it was 15.3 µM (inactive); in the assay with MOLT-4 it was 4.95 µM (inactive); with IGROV-1 it was 11 µM (inactive).
